# Assay results as given in patent EP4574152A1, “POTASSIUM CHANNEL ACTIVATORS FOR USE IN THE TREATMENT OF EPILEPTIC DISORDERS” (Fraunhofer-Gesellschaft zur Förderung der angewandten …, priority 2023, dated 2025).
# Like-named read-outs stand apart in the source and are kept apart here.
# Key:
# Kv7.3 A315T [1] = target: T1, Kv7.3 A315T (Homo sapiens, UniProt O43525, A315T); test: fluorescence-based thallium flux assay (FluxOR) in CHO cells stably transfected with Kv7.3 A315T; format: cell-based; settings: for maximum activities: relative to retigabine
# T1 construct: expressed in transfected cells; host or cells: CHO, transient
# Text: The Fraunhofer repurposing library was initially screened in a cellular model represented by Chinese hamster ovary cells (CHO) stably transfected with a variant of the Kv7.3 channel (carrying the mutation A315T to enhance current size and increase the signal-to-noise ratio). The Kv7.3 A315T cell line was used in a fluorescence-based thallium flux assay (FluxOR, Thermofisher) optimized as a read-out for Kv7 channel function, using retigabine as a positive control.
# Compounds in the Fraunhofer repurposing library were tested in Kv7.3 A315T-expressing cells at 10 µM and their Kv7 opening effect was compared to that observed with 10 µM retigabine.
# Kv7.3 A315T [2] = target: T1, Kv7.3 A315T; test: whole-cell patch-clamp in CHO cells transiently transfected with Kv7.3 A315T cDNA; format: cell-based
# Protocol: (§1) JNJ-37822681 efficacy in opening Kv7 channels was further investigated through the whole-cell patch-clamp electrophysiological technique, the gold standard technique for investigating ion channels activity and pharmacological modulation.
# In order to better evaluate the quantitative differences occurring in Kv7-opening ability between retigabine, and JNJ-37822681, dose-response experiments (0.01-30 µM) were performed to calculate EC50s using the functional parameters of ΔV1/2 (Figure 1C).
# Kv7.2+Kv7.3 channels = target: T2, Kv7.2+Kv7.3 channels (Homo sapiens, UniProt O43525+O43526); test: whole-cell patch-clamp in CHO cells expressing Kv7.2+Kv7.3 channels; format: cell-based; settings: calculated from dose-response curves, Kv7.2/7.3 currents
# T2 construct: expressed in transfected cells; host or cells: CHO
# Text: as §1
# [3] = target: T3, Kv7.2 channels carrying the W236L mutation (Homo sapiens, UniProt O43526, W236L); test: patch-clamp on homomeric Kv7.2 channels carrying the W236L mutation; format: cell-based; settings: 10 µM
# T3 construct: expressed in transfected cells
# PTZ-induced seizures = PTZ-induced seizures in mice; format: in vivo, C57BL/6J mice; settings: for ED50: Mus musculus, ip; for ED50 Values (mg/Kg) Clonus / ED50 Values (mg/Kg) Tonus: i.p.
# Protocol: (§2) JNJ-37822681 was tested in two animal models of acute seizures widely used for the evaluation of new ASMs: 1. a mouse model of generalized myoclonic seizures such as acute exposure to the GABAA receptor antagonist pentylenetetrazol (PTZ); 2. audiogenic seizures induced in genetically epilepsy-prone DBA/2 mice.
# (§3) In both animal models, retigabine or JNJ-37822681 were administered i.p, 30 minutes before seizures induction with PTZ or sounds.
# audiogenic seizures = audiogenic seizures in DBA/2 mice; format: in vivo; settings: limits in brackets; for ED50: Mus musculus, ip; for ED50 Values (mg/Kg) Clonus / ED50 Values (mg/Kg) Tonus / ED50 Values (mg/Kg) Wild Running: i.p.
# Protocol: as §2, §3
# [4] = 30 minutes before seizures induction with PTZ, limits in brackets
# [5] = 30 minutes before seizures induction with sounds
structure (smiles),measurement,setting,value
"Fc1ccc(CN2CCC(Nc3ccc(C(F)(F)F)nn3)CC2)cc1F [JNJ-37822681, N-[1-[(3,4-difluorophenyl)methyl]-4-piperidinyl]-6-(trifluoromethyl)-3-pyridazinamine]",maximum activities,Kv7.3 A315T [1]; FluxOR assay,83.8%
same,EC50,"Kv7.3 A315T [1]; FluxOR assay, ten-point dose-response curve from 0.5 nM to 10 µM, read-out: EC50",140 nM
same,EC50,"Kv7.3 A315T [2]; calculated from ΔV1/2, dose-response 0.01-30 µM, read-out: EC50",2000 ± 30 nM
same,maximal ΔV1/2,Kv7.3 A315T [2]; dose-response 0.01-30 µM,37.0±5.4 mV
same,leftward shift of the channel voltage-dependence of activation (ΔV1/2),Kv7.3 A315T [2]; perfusion with 1 µM,qualitatively similar effects
same,EC50,Kv7.2+Kv7.3 channels,1200 ± 300 nM
same,activation of Kv7.2 channels carrying the W236L mutation,[3],failed to activate
same,ED50,"PTZ-induced seizures; 30 minutes before seizures induction with PTZ, limits in brackets, read-out: ED50 Values (mg/Kg) Clonus",15 mg/kg
same,ED50,"PTZ-induced seizures; 30 minutes before seizures induction with PTZ, limits in brackets, read-out: ED50 Values (mg/Kg) Tonus",9 mg/kg
same,ED50 Values (mg/Kg) Clonus,PTZ-induced seizures; [4],15 (12-18) mg/Kg
same,ED50 Values (mg/Kg) Tonus,PTZ-induced seizures; [4],9 (6-13) mg/Kg
same,ED50,"audiogenic seizures; 30 minutes before seizures induction with sounds, read-out: ED50 Values (mg/Kg) Clonus",6 mg/kg
same,ED50,"audiogenic seizures; 30 minutes before seizures induction with sounds, read-out: ED50 Values (mg/Kg) Tonus",3 mg/kg
same,ED50,"audiogenic seizures; 30 minutes before seizures induction with sounds, read-out: ED50 Values (mg/Kg) Wild Running",11 mg/kg
same,ED50 Values (mg/Kg) Clonus,audiogenic seizures; [5],6 (5-9) mg/Kg
same,ED50 Values (mg/Kg) Tonus,audiogenic seizures; [5],3 (2-5) mg/Kg
same,ED50 Values (mg/Kg) Wild Running,audiogenic seizures; [5],11 (8-13) mg/Kg
"CCOC(=O)Nc1ccc(NCc2ccc(F)cc2)cc1N [retigabine, reference compound]",EC50,Kv7.3 A315T [1],300 nM
same,maximum activities,Kv7.3 A315T [1]; FluxOR assay,100%
same,EC50,Kv7.3 A315T [2],600 ± 100 nM
same,ED50,PTZ-induced seizures; read-out: ED50 Values (mg/Kg) Clonus,13 mg/kg
same,ED50,PTZ-induced seizures; read-out: ED50 Values (mg/Kg) Tonus,9 mg/kg
same,ED50 Values (mg/Kg) Clonus,PTZ-induced seizures; [4],13 (9.2-18.5) mg/Kg
same,ED50 Values (mg/Kg) Tonus,PTZ-induced seizures; [4],9 (7-12) mg/Kg
same,ED50,"audiogenic seizures; read-out: ED50 Values (mg/Kg) Clonus, i.p., 30 minutes before seizures induction with sounds",7 mg/kg
same,ED50,"audiogenic seizures; read-out: ED50 Values (mg/Kg) Tonus, i.p., 30 minutes before seizures induction with sounds",4.6 mg/kg
same,ED50,"audiogenic seizures; read-out: ED50 Values (mg/Kg) Wild Running, i.p., 30 minutes before seizures induction with sounds",12 mg/kg
same,ED50 Values (mg/Kg) Clonus,audiogenic seizures; [5],6.9 (4.3-11) mg/Kg
same,ED50 Values (mg/Kg) Tonus,audiogenic seizures; [5],4.6 (3.6-6) mg/Kg
same,ED50 Values (mg/Kg) Wild Running,audiogenic seizures; [5],12.4 (9-17.3) mg/Kg
